The results in this text go back to patent US5023240A, “Derivatives of tylosin and 10,11,12,13-tetrahydro tylosin and their use in pharmaceuticals” (Sour Pliva, priority 1987, dated 1991).

Common to all, as to assay type: cell-based
The test system of assay [1] is Staph. aureus. Kind of assay: antimicrobial activity, MIC by agar dilution method, Staph. aureus. Also on record: key to Minimal Inhibitory Concentration: R: resistant. The settings on record: 13 test strains, MIC refers to over 90% of tested strains; for MIC90: Staphylococcus aureus, read-out: Minimal Inhibitory Concentration. The protocol:
(§1) The antimicrobial activity of some compounds of the present invention was tested on the laboratory strain Sarcina lutea and on 50 various strains isolated from fresh patients' samples. The minimal inhibitory concentration (MIC) was determined by the agar dilution method as described by M. D. Finegold and J. W. Martin, Diagnostic Microbiology, Mosby Comp., St. Louis 1982, p. 536-540.
Background: Agar dilution tests growth on a series of plates holding different concentrations.

In assay [2] the test system is Strep. faecalis. Kind of assay: antimicrobial activity, MIC by agar dilution method, Strep. faecalis. The settings on record: 17 test strains, MIC refers to over 90% of tested strains; for MIC90: Enterococcus faecalis, read-out: Minimal Inhibitory Concentration. Set-up: key to Minimal Inhibitory Concentration: R: resistant. The method, then: as §1
In assay [3] the test system is Strep. pneumoniae. Kind of assay: antimicrobial activity, MIC by agar dilution method, Strep. pneumoniae. The note with it: 3 test strains, MIC refers to over 90% of tested strains; for MIC90: Streptococcus pneumoniae, read-out: Minimal Inhibitory Concentration. Set-up: key to Minimal Inhibitory Concentration: R: resistant. The method, then: as §1
Assay [4] deals with Strep. agalact. Kind of assay: antimicrobial activity, MIC by agar dilution method, Strep. agalact. Also on record: key to Minimal Inhibitory Concentration: R: resistant. The note with it: 2 test strains, MIC refers to over 90% of tested strains; for MIC90: read-out: Minimal Inhibitory Concentration. The method, then:
as §1

Assay [5] concerns Staph. saproph. Briefly: antimicrobial activity, MIC by agar dilution method, Staph. saproph. Also on record: key to Minimal Inhibitory Concentration: R: resistant. The settings on record: 6 test strains, MIC refers to over 90% of tested strains; for MIC90: read-out: Minimal Inhibitory Concentration. The method, then:
as §1

Assay [6] has as its system Sarcina lutea. Briefly: antimicrobial activity, MIC by agar dilution method, Sarcina lutea. The note with it: Micrococcus luteus, 4 test strains, MIC refers to over 90% of tested strains, read-out: Minimal Inhibitory Concentration. The method, then: as §1

Converted amounts (≈) assume the structure as drawn.

As to `CCC1OC(=O)CC(O)C(C)C(OC2OC(C)C(OC3CC(C)(O)C(O)C(C)O3)C(N(C)C)C2O)C(CCO)CC(C)C(=NO)C=CC(C)=CC1COC1OC(C)C(O)C(OC)C1OC` (centres unmarked) [XVIII, relomycin oxime], the MIC90 in assay [1] was 64 µg/mL (≈ 68.6 µM); in assay [3] it was 0.5 µg/mL (≈ 0.536 µM); in assay [4] it was 64 µg/mL (≈ 68.6 µM); in assay [5], 4 to 16 µg/mL (≈ 4.29 to 17.1 µM); in assay [6], 0.5 µg/mL (≈ 0.536 µM). Besides, in assay [2], the “Minimal Inhibitory Concentration” value is recorded as “R”.
Take `CCC1OC(=O)CC(O)C(C)C(OC2OC(C)C(OC3CC(C)(O)C(O)C(C)O3)C(N(C)C)C2O)C(CC=O)CC(C)C(O)CCC(C)CC1COC1OC(C)C(O)C(OC)C1OC` (centres unmarked) [VI, 9-deoxo-9-hydroxy-10,11,12,13-tetrahydro tylosin]: the MIC90 in assay [1] was 4 µg/mL (≈ 4.34 µM); in assay [2] it was 8 to 32 µg/mL (≈ 8.68 to 34.7 µM); in assay [3], 0.5 µg/mL (≈ 0.542 µM); in assay [4], 2 to 8 µg/mL (≈ 2.17 to 8.68 µM); in assay [5], 2 to 4 µg/mL (≈ 2.17 to 4.34 µM); in assay [6], 0.5 µg/mL (≈ 0.542 µM).
For `CCC1OC(=O)CC(O)C(C)C(OC2OC(C)C(OC3CC(C)(O)C(O)C(C)O3)C(N(C)C)C2O)C(CC=NO)CC(C)C(=NO)CCC(C)CC1COC1OC(C)C(O)C(OC)C1OC` (centres unmarked) [XX, 10,11,12,13tetrahydro tylosin dioxime], the MIC90 in assay [1] was 16 to 32 µg/mL (≈ 16.8 to 33.7 µM); in assay [3] it was 2 to 4 µg/mL (≈ 2.1 to 4.21 µM); in assay [5], 16 µg/mL (≈ 16.8 µM); in assay [6] it was 1 µg/mL (≈ 1.05 µM).
Take `CCC1OC(=O)CC(O)C(C)C(OC2OC(C)C(OC3CC(C)(O)C(O)C(C)O3)C(N(C)C)C2O)C(CC=NO)CC(C)C(=O)C=CC(C)=CC1COC1OC(C)C(O)C(OC)C1OC` (centres unmarked) [XII, Tylosin aldoxime]: the MIC90 was 1 to 4 µg/mL (≈ 1.07 to 4.3 µM) in assay [1]; 1 to 4 µg/mL (≈ 1.07 to 4.3 µM) in assay [2]; 0.5 µg/mL (≈ 0.537 µM) in assay [3]; 0.5 µg/mL (≈ 0.537 µM) in assay [4]; 0.5 to 2 µg/mL (≈ 0.537 to 2.15 µM) in assay [5]; 0.5 µg/mL (≈ 0.537 µM) in assay [6].
For the molecule `CCC1OC(=O)CC(O)C(C)C(OC2OC(C)C(OC3CC(C)(O)C(O)C(C)O3)C(N(C)C)C2O)C(CCO)CC(C)C(=O)C=CC(C)=CC1COC1OC(C)C(O)C(OC)C1OC` (centres unmarked) [Ia, 20-deoxo-20-hydroxy tylosin, reference compound], the MIC90 in assay [1] is 4 to 16 µg/mL (≈ 4.36 to 17.4 µM); in assay [2], 64 µg/mL (≈ 69.7 µM); in assay [3], 0.5 to 1 µg/mL (≈ 0.545 to 1.09 µM); in assay [4], 16 µg/mL (≈ 17.4 µM); in assay [5], 1 to 16 µg/mL (≈ 1.09 to 17.4 µM); in assay [6] it was 1 µg/mL (≈ 1.09 µM).
As to `CCC1OC(=O)CC(O)C(C)C(OC2OC(C)C(OC3CC(C)(O)C(O)C(C)O3)C(N(C)C)C2O)C(CCO)CC(C)C(=NO)CCC(C)CC1COC1OC(C)C(O)C(OC)C1OC` (centres unmarked) [XXIII, 10,11,12,13-tetrahydro relomycin oxime], the “Minimal Inhibitory Concentration” value in assay [1], in assay [2], in assay [4] and in assay [5] was “R” in each case. For the same molecule, the MIC90 in assay [3] was 64 µg/mL (≈ 68.3 µM); in assay [6], 0.5 µg/mL (≈ 0.534 µM).
For the molecule `CCC1OC(=O)CC(O)C(C)C(OC2OC(C)C(OC3CC(C)(O)C(O)C(C)O3)C(N(C)C)C2O)C(CC=O)CC(C)C(=O)CCC(C)CC1COC1OC(C)C(O)C(OC)C1OC` (centres unmarked) [II, 10,11,12,13-tetrahydro tylosin], the MIC90 is 2 to 4 µg/mL (≈ 2.17 to 4.35 µM) in assay [1]; 4 to 8 µg/mL (≈ 4.35 to 8.69 µM) in assay [2]; 0.5 µg/mL (≈ 0.543 µM) in assay [3]; 1 to 2 µg/mL (≈ 1.09 to 2.17 µM) in assay [4]; 1 to 2 µg/mL (≈ 1.09 to 2.17 µM) in assay [5]; 0.5 µg/mL (≈ 0.543 µM) in assay [6].
As to `CCC1OC(=O)CC(O)C(C)C(OC2OC(C)C(OC3CC(C)(O)C(O)C(C)O3)C(N(C)C)C2O)C(CCO)CC(C)C(=O)CCC(C)CC1COC1OC(C)C(O)C(OC)C1OC` (centres unmarked) [III, 10,11,12,13-tetrahydro relomycin], the MIC90 in assay [1] worked out at 32 µg/mL (≈ 34.7 µM); in assay [6], 1 µg/mL (≈ 1.08 µM). Further, the “Minimal Inhibitory Concentration” value in assay [2], in assay [3], in assay [4] and in assay [5] was “R” each time.
Turning to `CCC1OC(=O)CC(O)C(C)C(OC2OC(C)C(OC3CC(C)(O)C(O)C(C)O3)C(N(C)C)C2O)C(CC=NO)CC(C)C(=O)CCC(C)CC1COC1OC(C)C(O)C(OC)C1OC` (centres unmarked) [XIX, 10,11,12,13-tetrahydro tylosin aldoxime], the MIC90 in assay [1] is 8 to 16 µg/mL (≈ 8.55 to 17.1 µM); in assay [3], 1 µg/mL (≈ 1.07 µM); in assay [5], 8 µg/mL (≈ 8.55 µM); in assay [6], 0.5 µg/mL (≈ 0.535 µM).
